Data on 19 compounds can be found in patent publication US20040121946A9, “Inducing cellular immune responses to her2/neu using peptide and nucleic acid compositions” (priority 2002, published 2004).

One test deals with HLA-A*0203 (Homo sapiens, UniProt P04439, A173T/D140Y/D185E/D98H/E277Q/G131W/G231S/I119V/I121R/I166T/I218V/L180W/L300P/L318F/N151K/N90K/P208A/P217A/Q86G/Q94H/R138H/R169H/T345S). The test is classed as binding.
For another test, the target named is HLA-A*0201 (Homo sapiens, UniProt P04439, D140Y/D185E/D98H/E176V/E277Q/G131W/G231S/I119V/I121R/I166T/I218V/L300P/L318F/N151K/N90K/P208A/P217A/Q86G/Q94H/R138H/R169H/T345S). The test is classed as binding.
The subject of test [1] is tumor targets that endogenously express HER2/neu (colon adenocarcinoma cell lines SW403 and HT-29). Nature of the test: Primary in vitro CTL induction, recognition of wild-type peptide and endogenous tumor targets (51Cr release / in situ IFNγ ELISA). In kind it is cell-based, human. The following applies: number of donors yielding a positive response/total tested; normal donors. A general note: In an ELISA, binding on a coated surface is turned into a signal by an enzyme label.

Test [2] deals with peptide-pulsed target cells and transfected cells endogenously expressing the antigen. Kind of test: Recall CTL responses of PBMCs from ovarian cancer patients. In kind it is cell-based, human. The following applies: data from ovarian cancer patients.
Excerpt: Immunogenicity was additionally confirmed using PBMCs isolated from cancer patients. Briefly, PBMCs were isolated from two patients with ovarian cancer, re-stimulated with peptide-pulsed monocytes and assayed for the ability to recognize peptide-pulsed target cells as well as transfected cells endogenously expressing the antigen.
The target in the next test is HLA-A*0206 (Homo sapiens, UniProt P04439, D140Y/D185E/D98H/E176V/E277Q/F33Y/G131W/G231S/I119V/I121R/I166T/I218V/L300P/L318F/N151K/N90K/P208A/P217A/Q86G/Q94H/R138H/R169H/T345S). In kind it is binding.
The target of another test is HLA-A*0301 (Homo sapiens, UniProt P04439). The test is classed as binding. The following applies: Table XXIII, HLA-A3 supermotif-bearing peptides.
Another test deals with HLA-A*6801 (Homo sapiens, UniProt P04439, A269V/D185E/E176V/E277Q/E87N/F33Y/G231S/I121M/I166T/I218V/L180W/L300P/L318F/N151K/P208A/P217A/Q86R/R169H/T345S). The test is classed as binding. The settings on record: Table XXIII, HLA-A3 supermotif-bearing peptides.
Test [3] has as its system A3-supertype alleles (A*0301, A*1101, A*3101, A*3301, A*6801). Kind of test: A3-supertype cross-reactive binding. Details: species or system human. The following applies: of five A3-supertype alleles tested.
Another test deals with HLA-A*3301 (Homo sapiens, UniProt P04439, A270S/D185E/E176V/E277Q/E87N/F33T/G231S/H175R/I121M/I218V/I322F/K168Q/K210R/L300P/L318F/M331R/P217A/Q86R/Q94H/R138Q/T323A/T345S/T97I/V358M/Y195H). In kind it is binding. The following applies: Table XXIII, HLA-A3 supermotif-bearing peptides.
Another test deals with HLA-A*1101 (Homo sapiens, UniProt P04439, A114D/D185E/E176A/F33Y/L180Q/S129P/T187R). The test is classed as binding. The following applies: Table XXIII, HLA-A3 supermotif-bearing peptides.
For a further test, the target named is HLA-A*3101 (Homo sapiens, UniProt P04439, A270S/D185E/E176V/E277Q/F33T/G231S/G80R/H175R/I121M/I218V/I322F/K168Q/L300P/L318F/M331R/P217A/Q94H/R138Q/T323A/T345S/T97I/V358M). The test is classed as binding. The following applies: Table XXIII, HLA-A3 supermotif-bearing peptides.
Setting [4] is: HLA-A2 supermotif-bearing peptides, Table XXVII.
The mark [5] stands for this setting: Table XXII, A2 supermotif peptides and analogs.

In general, IC50 refers to the concentration that gives 50% inhibition. A low value points to inhibition by little substance.

Like-named read-outs stand apart in the source and are kept apart here. Where a SMILES comes first, the peptide text is derived from it. Where no end group is shown, it is not given here. [ ]: non-standard residue; d: D form. Abu = CC[C@H](N)C(=O)O

Turning to `CC(C)C[C@H](NC(=O)[C@H](CO)NC(=O)CNC(=O)[C@H](Cc1ccccc1)NC(=O)[C@@H](NC(=O)[C@@H](N)CCCCN)[C@@H](C)O)C(=O)N[C@@H](C)C(=O)N[C@@H](Cc1ccccc1)C(=O)N[C@H](C(=O)O)C(C)C`, the IC50 against HLA-A*0203 (Table XXVII) is 1010 nM; on HLA-A*0201 (setting [4]), 35 nM.
On to `CC(C)C[C@H](NC(=O)[C@H](CCC(N)=O)NC(=O)[C@@H](NC(=O)[C@@H](NC(=O)[C@H](CO)NC(=O)[C@@H](NC(=O)[C@H](CC(C)C)NC(=O)[C@@H](N)CS)[C@@H](C)O)[C@@H](C)O)C(C)C)C(=O)N[C@H](C(=O)O)C(C)C`, for which, in test [1], the “CTL Tumor” value was 0/4 and the “CTL Wildtype” value is 1/4. Moreover, in test [2], the “CTL Wildtype” value was 1/2.
For `CC[C@H](NC(=O)[C@H](CCSC)NC(=O)[C@H](C)N)C(=O)N[C@@H](CCCNC(=N)N)C(=O)N[C@@H](Cc1c[nH]c2ccccc12)C(=O)NCC(=O)N[C@@H](CC(C)C)C(=O)N[C@@H](CC(C)C)C(=O)N[C@H](C(=O)O)C(C)C` [Her2/neu.5M2B3V9] (H-AM[Abu]RWGLLV-OH), the 50% inhibitory concentration (IC50) on HLA-A*0203 (setting [5]) came out at 16 nM; at HLA-A*0206 (setting [5]) it was 726 nM; against HLA-A*0201 (setting [5]), 36 nM.
Regarding `CC[C@H](C)[C@H](NC(=O)[C@H](CC(C)C)NC(=O)[C@@H](N)Cc1ccc(O)cc1)C(=O)N[C@@H](CCSC)C(=O)N[C@H](C(=O)N[C@@H](CCCCN)C(=O)N[C@@H](CS)C(=O)N[C@@H](Cc1c[nH]c2ccccc12)C(=O)N[C@@H](CCSC)C(=O)N[C@H](C(=O)O)C(C)C)C(C)C`, the 50% inhibitory concentration (IC50) against HLA-A*0203 (Table XXVII) stood at 116 nM; against HLA-A*0206 (Table XXVII) it was 18 nM; on HLA-A*0201 (setting [4]), 13 nM.
Take `CC[C@H](NC(=O)[C@@H](NC(=O)[C@H](C)N)[C@@H](C)O)C(=O)N[C@@H](CCCNC(=N)N)C(=O)N[C@@H](Cc1c[nH]c2ccccc12)C(=O)NCC(=O)N[C@@H](CC(C)C)C(=O)N[C@@H](CC(C)C)C(=O)N[C@H](C(=O)O)C(C)C` [Her2/neu.5.T2B3V9] (H-AT[Abu]RWGLLV-OH): the 50% inhibitory concentration (IC50) on HLA-A*0206 (setting [5]) amounted to 2180 nM; against HLA-A*0201 (setting [5]), 16700 nM.
`CC[C@H](NC(=O)[C@@H](NC(=O)[C@H](C)N)C(C)C)C(=O)N[C@@H](CCCNC(=N)N)C(=O)N[C@@H](Cc1c[nH]c2ccccc12)C(=O)NCC(=O)N[C@@H](CC(C)C)C(=O)N[C@@H](CC(C)C)C(=O)N[C@H](C(=O)O)C(C)C` [Her2/neu.5V2B3V9] (H-AV[Abu]RWGLLV-OH): the values for the IC50 on HLA-A*0203 (setting [5]), on HLA-A*0206 (setting [5]) and on HLA-A*0201 (setting [5]) were 141 nM, 2180 nM and 10000 nM, respectively.
On HLA-A*0203 (setting [5]), `CC[C@H](C)[C@H](NC(=O)[C@H](CCC(=O)O)NC(=O)[C@@H](NC(=O)[C@H](CC(C)C)NC(=O)[C@@H](N)CO)[C@@H](C)O)C(=O)N[C@@H](CC(C)C)C(=O)N[C@@H](CCCCN)C(=O)NCC(=O)NCC(=O)N[C@H](C(=O)O)C(C)C` [Her2/neu.144] showed an IC50 of 22 nM.
For the compound `CC[C@H](C)[C@H](NC(=O)[C@H](CC(C)C)NC(=O)[C@@H](N)CO)C(=O)N[C@@H](CO)C(=O)N[C@@H](C)C(=O)N[C@H](C(=O)N[C@H](C(=O)NCC(=O)N[C@H](C(=O)O)C(C)C)C(C)C)C(C)C`, the results for the IC50 against HLA-A*0203 (Table XXVII), at HLA-A*0206 (Table XXVII) and at HLA-A*0201 (setting [4]) were 16 nM, 20 nM and 7.1 nM, respectively.
Take VLIQRNPQV: the concentration for half-maximal inhibition (IC50) turned out to be 135 nM at HLA-A*0203 (Table XXVII), 385 nM at HLA-A*0206 (Table XXVII) and 55 nM against HLA-A*0201.
Take `CC(C)C[C@H](NC(=O)[C@H](Cc1ccccc1)NC(=O)[C@H](CCC(N)=O)NC(=O)[C@H](CO)NC(=O)[C@H](CS)NC(=O)[C@H](CC(N)=O)NC(=O)[C@@H](NC(=O)[C@@H](N)CS)C(C)C)C(=O)N[C@@H](CCCNC(=N)N)C(=O)O` [Her2/neu.528]: the IC50 against HLA-A*0301 turned out to be 7330 nM; against HLA-A*6801, 18 nM; against HLA-A*3301 it was 50 nM; on HLA-A*1101, 194 nM; against HLA-A*3101, 34 nM. Besides, the “No. of A3 Alleles Crossbound” value in [3] stood at 4.
Take AVPLDSTFYK [Her2/neU.997.V2K10]: the IC50 against HLA-A*0301 turned out to be 550 nM; against HLA-A*6801, 229 nM; on HLA-A*3301 it was 22300 nM; on HLA-A*1101, 33 nM; on HLA-A*3101, 1500 nM. In [3], the “No. of A3 Alleles Crossbound” value is 2.
VLLGVVFGV: the values for the IC50 against HLA-A*0206 (Table XXVII) and against HLA-A*0201 (setting [4]) were 6 nM and 2.4 nM, respectively.
With H-QLMPYGCLL-OH [Her2/neu.799], the IC50 on HLA-A*0203 (setting [5]) came to 114 nM; on HLA-A*0206 (setting [5]), 712 nM.
Take `CC(C)[C@H](NC(=O)[C@@H](N)[C@@H](C)O)C(=O)N[C@@H](CS)C(=O)N[C@@H](C)C(=O)NCC(=O)NCC(=O)N[C@@H](CS)C(=O)N[C@@H](C)C(=O)N[C@@H](CCCNC(=N)N)C(=O)O` [Her2/neu.218]: the half-inhibitory concentration (IC50) was over 10000 nM against HLA-A*0301; 83 nM at HLA-A*6801; 326 nM against HLA-A*3301; 261 nM against HLA-A*1101; 129 nM on HLA-A*3101. For the same compound, in test [3], the “No. of A3 Alleles Crossbound” value is reported as 4.
Turning to `CC[C@H](NC(=O)[C@H](CC(C)C)NC(=O)[C@H](C)N)C(=O)N[C@@H](CCCNC(=N)N)C(=O)N[C@@H](Cc1c[nH]c2ccccc12)C(=O)NCC(=O)N[C@@H](CC(C)C)C(=O)N[C@@H](CC(C)C)C(=O)N[C@@H](CC(C)C)C(=O)O` [Her2/neu.5.B3], the IC50 at HLA-A*0203 (setting [5]) is 12 nM.
Take `CC(C)C[C@H](NC(=O)[C@H](CCC(N)=O)NC(=O)[C@H](CC(=O)O)NC(=O)[C@H](Cc1c[nH]c2ccccc12)NC(=O)[C@@H]1CCCN1C(=O)[C@@H](NC(=O)[C@@H](NC(=O)[C@@H](N)Cc1c[nH]cn1)C(C)C)C(C)C)C(=O)N[C@@H](Cc1ccccc1)C(=O)N[C@@H](CCCCN)C(=O)O` [Her2/neu.478.V2K10]: the IC50 against HLA-A*0301 is 180 nM; at HLA-A*6801 it was 8.9 nM; against HLA-A*3301, over 10000 nM; against HLA-A*1101, 375 nM; against HLA-A*3101, over 10000 nM. Also, in [3], the “No. of A3 Alleles Crossbound” value is 3.
On to `CC[C@H](C)[C@H](N)C(=O)N[C@H](C(=O)N[C@@H](Cc1c[nH]c2ccccc12)C(=O)N[C@@H](CC(C)C)C(=O)NCC(=O)N[C@@H](CC(C)C)C(=O)N[C@@H](CCCNC(=N)N)C(=O)N[C@@H](CO)C(=O)N[C@@H](CC(C)C)C(=O)N[C@@H](CCCCN)C(=O)O)C(C)C` [Her2/neu.450.V2K10], for which the half-maximal inhibitory concentration (IC50) against HLA-A*0301 amounted to 3.9 nM; against HLA-A*6801, 12 nM; against HLA-A*3301, 2070 nM; at HLA-A*1101, 128 nM; at HLA-A*3101, 273 nM. Moreover, the “No. of A3 Alleles Crossbound” value in [3] turned out to be 4.
For `CC[C@H](NC(=O)[C@H](CC(N)=O)NC(=O)[C@@H](NC(=O)[C@@H](N)CC)C(C)C)C(=O)N[C@@H](CO)C(=O)N[C@@H](CCC(N)=O)C(=O)N[C@@H](Cc1ccccc1)C(=O)N[C@@H](CC(C)C)C(=O)N[C@@H](CCCCN)C(=O)O` [Her2/neu.528.B1B4K9] (H-[Abu]VN[Abu]SQFLK-OH), the IC50 against HLA-A*0301 was found to be 34 nM; against HLA-A*6801, 15 nM; against HLA-A*3301, 4270 nM; against HLA-A*1101, 22 nM; at HLA-A*3101, 60 nM. Besides, the “No. of A3 Alleles Crossbound” value in [3] turned out to be 4.
Regarding `CC[C@H](C)[C@H](NC(=O)[C@H](CCSC)NC(=O)[C@H](Cc1c[nH]c2ccccc12)NC(=O)[C@H](CS)NC(=O)[C@H](CCCCN)NC(=O)[C@@H](NC(=O)[C@H](CCSC)NC(=O)[C@@H](NC(=O)[C@H](CCSC)NC(=O)[C@@H](N)Cc1ccc(O)cc1)[C@@H](C)CC)C(C)C)C(=O)O`, in [1], the “CTL Tumor” value is listed as 0/1 and the “CTL Wildtype” value is reported as 0/1. In addition, in test [2], the “CTL Tumor” value is on record as 2/2 and the “CTL Wildtype” value is on record as 2/2.
